Activity calls are given as the source filed them. No cut-off for these calls is given here.
Experiments:
A-375 [1] = experiment: Antiproliferative activity against human A375 cells after 72 hrs by SRB assay; assay type: functional, cell-based; conditions: A-375, 72 h
HEK293 = experiment: Antiproliferative activity against HEK293 cells after 72 hrs by SRB assay; assay type: cell-based; conditions: Homo sapiens, HEK293, 72 h
A549 [2] = experiment: Antiproliferative activity against human A549 cells after 72 hrs by SRB assay; assay type: functional, cell-based; conditions: A549, 72 h
MCF7 [3] = experiment: Antiproliferative activity against human MCF7 cells after 72 hrs by SRB assay; assay type: functional, cell-based; conditions: MCF7, 72 h
[4] = Solubility of the compound; assay type: physicochemical
NCI-H460 = experiment: Antiproliferative activity against human NCI-H460 cells after 72 hrs by SRB assay; assay type: functional, cell-based; conditions: NCI-H460, 72 h
[5] = Antiproliferative activity against human U87 cells after 72 hrs by SRB assay; assay type: functional, cell-based, U-87MG ATCC; conditions: U-87 MG
A549 [6] = experiment: Cell cycle arrest in human A549 cells assessed as accumulation at G1 phase at 10 uM after 48 hrs by propidium iodide staining based flow cytometry (reference value: 40.21%); assay type: functional
[7] = target: PI3-kinase p110-delta/p85-alpha (Homo sapiens) (UniProt P27986+O00329); experiment: Inhibition of human PI3K p110delta/p85alpha at 10 uM using phosphatidylinositol 4,5-bisphosphate as substrate after 30 mins by HTRF assay relative to control; assay type: protein-complex assay
[8] = target: T1, Serine/threonine-protein kinase mTOR (Homo sapiens, UniProt P42345); experiment: Inhibition of mTOR in human A549 cells assessed as reduction in p70S6K phosphorylation at T389 residue after 2 hrs by HTRF method; assay type: cell-based
[9] = target: PI3-kinase p110-alpha/p85-alpha (Homo sapiens) (UniProt P27986+P42336); experiment: Inhibition of human PI3K p110alpha/p85alpha at 10 uM using phosphatidylinositol 4,5-bisphosphate as substrate after 30 mins by HTRF assay relative to control; assay type: protein-complex assay
A549 [10] = experiment: Induction of apoptosis in human A549 cells assessed as late apoptotic cells at 10 uM after 48 hrs by Annexin V-FITC/propidium iodide staining based flow cytometry (reference value: 6.3%); assay type: functional
A549 [11] = experiment: Inhibition of mTORC2 in human A549 cells assessed as reduction in Akt phosphorylation at Ser-473 residue at 5 uM up to 2 hrs by Western blot method; assay type: cell-based
A549 [12] = experiment: Induction of apoptosis in human A549 cells assessed as necrotic cells at 10 uM after 48 hrs by Annexin V-FITC/propidium iodide staining based flow cytometry (reference value: 0.1%); assay type: functional
A549 [13] = experiment: Cell cycle arrest in human A549 cells assessed as accumulation at G2 phase at 10 uM after 48 hrs by propidium iodide staining based flow cytometry (reference value: 14.49%); assay type: functional
[14] = target: Phosphatidylinositol 4,5-bisphosphate 3-kinase catalytic subunit gamma isoform (Homo sapiens) (UniProt P48736); experiment: Inhibition of human PI3K p120gamma at 10 uM using phosphatidylinositol 4,5-bisphosphate as substrate after 30 mins by HTRF assay relative to control
[15] = target: PI3K p110 beta/p85 alpha (Homo sapiens) (UniProt P27986+P42338); experiment: Inhibition of human PI3K p110beta/p85alpha at 10 uM using phosphatidylinositol 4,5-bisphosphate as substrate after 30 mins by HTRF assay relative to control; assay type: protein-complex assay
[16] = target: PI3-kinase p110-alpha/p85-alpha (Homo sapiens, UniProt P42336); experiment: Inhibition of human PI3K p110alpha/p85alpha using phosphatidylinositol 4,5-bisphosphate as substrate after 30 mins by HTRF assay; assay type: protein-complex assay
A549 [17] = experiment: Induction of apoptosis in human A549 cells assessed as early apoptotic cells at 10 uM after 48 hrs by Annexin V-FITC/propidium iodide staining based flow cytometry (reference value: 3.6%); assay type: functional
A549 [18] = experiment: Cell cycle arrest in human A549 cells assessed as accumulation at S phase at 10 uM after 48 hrs by propidium iodide staining based flow cytometry (reference value: 45.31%); assay type: functional
A549 [19] = experiment: Induction of apoptosis in human A549 cells assessed as live cells at 10 uM after 48 hrs by Annexin V-FITC/propidium iodide staining based flow cytometry (reference value: 90%); assay type: functional
A549 [20] = experiment: Inhibition of mTORC1 in human A549 cells assessed as reduction in S6 phosphorylation at […] residues at 5 uM up to 2 hrs by Western blot method; assay type: cell-based
[21] = target: T1, Serine/threonine-protein kinase mTOR; experiment: Inhibition of human N-terminal FLAG-tagged mTOR (1362-end residues) in presence of [gamma33P]ATP after 40 mins
A-375 [22] = experiment: Growth inhibition of human A375 cells at 20 uM after 72 hrs by SRB assay relative to control; assay type: functional; conditions: A-375, 72 h, read-out: GI
[23] = Growth inhibition of human U87 cells at 20 uM after 72 hrs by SRB assay relative to control; assay type: functional, U-87MG ATCC; conditions: U-87 MG, read-out: GI
MCF7 [24] = experiment: Growth inhibition of human MCF7 cells at 20 uM after 72 hrs by SRB assay relative to control; assay type: functional; conditions: MCF7, 72 h, read-out: GI
A549 [25] = experiment: Growth inhibition of human A549 cells at 20 uM after 72 hrs by SRB assay relative to control; assay type: functional; conditions: A549, 72 h, read-out: GI
HeLa = experiment: Growth inhibition of human HeLa cells at 20 uM after 72 hrs by SRB assay relative to control; assay type: functional; conditions: read-out: GI
Mus musculus [26] = experiment: Toxicity in Balb/c nude mouse xenografted with human A549 cells assessed as mortality at 5 to 30 mg/kg, iv administered 7 times on day 14, 16, 18, 21, 23, 25, 28 post tumor implantation; assay type: organism-based; conditions: in vivo
Mus musculus [27] = experiment: Toxicity in Balb/c nude mouse xenografted with human A549 cells assessed as changes in body weight at 5 to 30 mg/kg, iv administered 7 times on day 14, 16, 18, 21, 23, 25, 28 post tumor implantation; assay type: organism-based; conditions: in vivo
A549 [28] = experiment: Antitumor activity against human A549 cells xenografted in Balb/c nude mouse assessed sa tumor growth inhibition at 30 mg/kg, iv administered 7 times on day 14, 16, 18, 21, 23, 25, 28 post tumor implantation measured after 1 week relative to control; assay type: functional; conditions: read-out: TGI

Phosphatidylinositol 4,5-bisphosphate 3-kinase catalytic subunit gamma isoform (Homo sapiens), sequence (P48736 whole entry, looked up, canonical isoform): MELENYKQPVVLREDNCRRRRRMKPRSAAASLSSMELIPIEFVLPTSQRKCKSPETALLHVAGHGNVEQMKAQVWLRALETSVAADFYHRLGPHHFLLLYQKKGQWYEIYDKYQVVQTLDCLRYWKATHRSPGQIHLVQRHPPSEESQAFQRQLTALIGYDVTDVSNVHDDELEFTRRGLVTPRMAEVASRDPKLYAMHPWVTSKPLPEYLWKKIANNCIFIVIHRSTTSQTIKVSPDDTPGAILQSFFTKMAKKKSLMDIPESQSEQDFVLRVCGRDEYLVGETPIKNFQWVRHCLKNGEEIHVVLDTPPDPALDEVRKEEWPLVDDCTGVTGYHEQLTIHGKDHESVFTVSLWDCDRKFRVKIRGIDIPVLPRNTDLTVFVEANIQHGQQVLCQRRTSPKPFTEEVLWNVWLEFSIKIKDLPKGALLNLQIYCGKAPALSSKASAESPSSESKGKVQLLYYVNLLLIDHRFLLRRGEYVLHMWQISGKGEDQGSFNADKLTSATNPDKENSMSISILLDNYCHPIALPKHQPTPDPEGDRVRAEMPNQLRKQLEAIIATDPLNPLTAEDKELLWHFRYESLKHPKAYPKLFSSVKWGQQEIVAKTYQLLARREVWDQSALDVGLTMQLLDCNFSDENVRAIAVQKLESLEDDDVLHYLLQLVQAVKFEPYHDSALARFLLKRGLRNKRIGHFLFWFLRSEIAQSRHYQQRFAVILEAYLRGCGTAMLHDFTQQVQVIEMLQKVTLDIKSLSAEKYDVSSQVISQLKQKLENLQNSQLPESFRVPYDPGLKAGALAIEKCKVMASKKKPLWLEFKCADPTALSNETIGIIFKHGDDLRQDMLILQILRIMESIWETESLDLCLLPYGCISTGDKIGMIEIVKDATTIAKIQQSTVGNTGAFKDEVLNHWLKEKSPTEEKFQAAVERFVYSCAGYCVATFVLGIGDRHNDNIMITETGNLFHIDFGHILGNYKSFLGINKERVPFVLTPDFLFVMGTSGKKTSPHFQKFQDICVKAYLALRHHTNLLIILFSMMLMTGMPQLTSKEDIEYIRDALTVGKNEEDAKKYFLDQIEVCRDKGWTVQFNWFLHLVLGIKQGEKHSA
PI3K p110 beta/p85 alpha (Homo sapiens), sequence (P27986 2-724 limits assumed): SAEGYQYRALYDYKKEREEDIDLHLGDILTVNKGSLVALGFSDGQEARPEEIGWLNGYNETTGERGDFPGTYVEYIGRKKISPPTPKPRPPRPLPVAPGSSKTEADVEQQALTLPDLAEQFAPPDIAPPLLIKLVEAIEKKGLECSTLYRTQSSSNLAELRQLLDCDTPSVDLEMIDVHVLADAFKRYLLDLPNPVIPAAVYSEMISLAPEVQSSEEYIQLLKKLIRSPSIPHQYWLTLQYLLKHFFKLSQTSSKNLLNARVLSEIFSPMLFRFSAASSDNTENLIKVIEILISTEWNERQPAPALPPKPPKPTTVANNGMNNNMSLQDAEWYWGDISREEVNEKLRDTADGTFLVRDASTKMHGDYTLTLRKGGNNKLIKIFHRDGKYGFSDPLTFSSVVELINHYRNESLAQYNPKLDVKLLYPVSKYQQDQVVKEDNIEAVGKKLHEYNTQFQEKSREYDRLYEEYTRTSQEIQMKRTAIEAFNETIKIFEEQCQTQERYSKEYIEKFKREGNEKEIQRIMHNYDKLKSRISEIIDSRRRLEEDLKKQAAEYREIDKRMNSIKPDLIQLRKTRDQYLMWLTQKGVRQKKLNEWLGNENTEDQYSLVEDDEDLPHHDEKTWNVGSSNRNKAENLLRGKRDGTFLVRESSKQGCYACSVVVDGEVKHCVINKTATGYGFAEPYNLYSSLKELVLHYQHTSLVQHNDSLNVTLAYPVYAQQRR
PI3K p110 beta/p85 alpha (Homo sapiens), sequence (P42338 whole entry partner): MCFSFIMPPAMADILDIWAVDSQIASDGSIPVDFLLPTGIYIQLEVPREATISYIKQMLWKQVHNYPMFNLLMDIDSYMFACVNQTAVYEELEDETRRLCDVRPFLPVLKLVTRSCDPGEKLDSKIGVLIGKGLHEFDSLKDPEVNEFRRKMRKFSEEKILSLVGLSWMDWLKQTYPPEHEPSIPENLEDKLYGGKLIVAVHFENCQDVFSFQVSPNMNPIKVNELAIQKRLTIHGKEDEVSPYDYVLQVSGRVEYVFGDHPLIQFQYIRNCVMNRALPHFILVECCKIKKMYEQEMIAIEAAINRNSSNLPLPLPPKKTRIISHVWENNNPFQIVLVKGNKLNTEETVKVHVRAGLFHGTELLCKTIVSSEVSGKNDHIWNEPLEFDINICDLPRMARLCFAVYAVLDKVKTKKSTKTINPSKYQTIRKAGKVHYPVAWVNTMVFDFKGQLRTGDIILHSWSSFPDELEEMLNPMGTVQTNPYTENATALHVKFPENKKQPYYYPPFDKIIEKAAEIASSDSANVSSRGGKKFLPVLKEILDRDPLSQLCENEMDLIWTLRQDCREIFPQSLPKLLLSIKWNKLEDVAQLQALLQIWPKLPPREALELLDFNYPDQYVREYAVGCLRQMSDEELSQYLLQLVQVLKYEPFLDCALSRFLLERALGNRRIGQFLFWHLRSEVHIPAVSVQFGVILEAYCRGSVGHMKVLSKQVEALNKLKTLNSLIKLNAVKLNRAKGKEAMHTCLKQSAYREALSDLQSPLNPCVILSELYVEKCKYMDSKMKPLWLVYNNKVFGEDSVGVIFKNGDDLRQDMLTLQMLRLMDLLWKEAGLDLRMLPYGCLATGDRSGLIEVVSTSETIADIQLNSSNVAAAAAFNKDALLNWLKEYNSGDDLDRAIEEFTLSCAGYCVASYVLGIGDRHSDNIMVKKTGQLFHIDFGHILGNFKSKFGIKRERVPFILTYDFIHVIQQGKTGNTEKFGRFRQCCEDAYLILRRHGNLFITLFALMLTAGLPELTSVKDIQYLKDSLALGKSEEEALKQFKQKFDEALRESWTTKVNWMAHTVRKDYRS
PI3-kinase p110-alpha/p85-alpha, sequence (P27986 whole entry): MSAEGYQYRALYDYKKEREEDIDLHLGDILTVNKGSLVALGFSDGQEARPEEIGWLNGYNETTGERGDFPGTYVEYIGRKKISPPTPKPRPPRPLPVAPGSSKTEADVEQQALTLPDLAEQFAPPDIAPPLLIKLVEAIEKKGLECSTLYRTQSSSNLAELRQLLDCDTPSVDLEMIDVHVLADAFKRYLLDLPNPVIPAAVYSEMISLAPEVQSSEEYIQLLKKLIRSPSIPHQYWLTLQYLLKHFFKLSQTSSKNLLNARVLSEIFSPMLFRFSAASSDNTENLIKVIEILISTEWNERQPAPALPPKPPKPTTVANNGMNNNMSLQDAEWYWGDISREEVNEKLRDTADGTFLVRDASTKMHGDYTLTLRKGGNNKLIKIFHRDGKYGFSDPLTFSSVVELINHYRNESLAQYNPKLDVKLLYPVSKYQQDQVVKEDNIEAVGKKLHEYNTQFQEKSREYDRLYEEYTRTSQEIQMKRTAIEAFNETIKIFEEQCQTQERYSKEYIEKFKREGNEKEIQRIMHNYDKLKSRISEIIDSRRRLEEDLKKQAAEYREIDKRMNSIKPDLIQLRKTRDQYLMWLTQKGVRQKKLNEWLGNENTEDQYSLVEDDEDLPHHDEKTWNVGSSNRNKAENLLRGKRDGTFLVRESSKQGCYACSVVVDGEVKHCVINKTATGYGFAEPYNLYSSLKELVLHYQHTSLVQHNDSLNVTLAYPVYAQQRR
PI3-kinase p110-alpha/p85-alpha, sequence (P42336 whole entry): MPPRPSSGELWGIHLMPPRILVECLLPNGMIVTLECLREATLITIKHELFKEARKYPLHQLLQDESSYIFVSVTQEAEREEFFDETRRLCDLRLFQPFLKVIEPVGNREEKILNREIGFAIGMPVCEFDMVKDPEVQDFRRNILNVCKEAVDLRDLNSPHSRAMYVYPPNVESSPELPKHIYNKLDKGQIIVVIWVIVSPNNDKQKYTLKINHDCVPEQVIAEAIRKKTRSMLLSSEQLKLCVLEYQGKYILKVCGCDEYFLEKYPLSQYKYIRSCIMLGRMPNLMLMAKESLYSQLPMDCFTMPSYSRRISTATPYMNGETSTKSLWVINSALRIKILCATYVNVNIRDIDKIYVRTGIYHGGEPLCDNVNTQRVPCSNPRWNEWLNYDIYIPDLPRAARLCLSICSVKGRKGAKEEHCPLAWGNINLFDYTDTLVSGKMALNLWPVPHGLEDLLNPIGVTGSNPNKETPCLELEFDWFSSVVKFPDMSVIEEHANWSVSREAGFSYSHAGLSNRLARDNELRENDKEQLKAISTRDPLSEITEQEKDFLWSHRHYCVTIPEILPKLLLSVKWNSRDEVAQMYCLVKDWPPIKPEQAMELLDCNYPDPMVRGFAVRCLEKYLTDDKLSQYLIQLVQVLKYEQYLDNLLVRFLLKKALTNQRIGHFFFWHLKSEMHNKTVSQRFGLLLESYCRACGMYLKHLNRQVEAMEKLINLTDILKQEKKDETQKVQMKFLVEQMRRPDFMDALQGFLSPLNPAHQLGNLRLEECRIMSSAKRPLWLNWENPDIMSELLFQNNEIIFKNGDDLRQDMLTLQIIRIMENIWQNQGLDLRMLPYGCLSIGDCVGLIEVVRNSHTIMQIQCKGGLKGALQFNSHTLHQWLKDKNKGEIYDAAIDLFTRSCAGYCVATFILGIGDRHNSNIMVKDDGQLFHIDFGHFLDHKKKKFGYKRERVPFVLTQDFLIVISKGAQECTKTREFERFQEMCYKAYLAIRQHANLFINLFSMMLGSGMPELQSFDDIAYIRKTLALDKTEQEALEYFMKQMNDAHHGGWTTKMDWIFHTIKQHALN

SMILES | IC50 (A-375 [1]) | IC50 (A549 [2]) | IC50 (MCF7 [3]) | solubility [4] | IC50 (NCI-H460) | inhibition [7] | inhibition [9] | inhibition [14] | inhibition [15] | IC50 (HEK293) | IC50 [5] | also measured
Cc1cnc2c(N3CCOCC3)cc(-c3ccc(NC(=O)Nc4ccncc4)cc3)nn12 | > 40 µM | > 40 µM | > 40 µM | Insoluble | > 40 µM | – | – | – | – | > 40 µM | > 40 µM | –
CCc1cnc2c(N3CCOCC3)cc(-c3ccc(NC(=O)Nc4cccnc4)cc3)nn12 | > 40 µM | 1.9 µM | > 40 µM | Insoluble | > 40 µM | – | – | – | – | > 40 µM | > 40 µM | –
C[C@H]1COCCN1c1cc(-c2ccc(NC(=O)Nc3ccncc3)cc2)nn2ccnc12 | 5.8 µM | 0.02 µM | 13.1 µM | – | 0.67 µM | 29% | 64% | 39% | 33% | 5.2 µM | 7.4 µM | Activity (A549 [6]): 50.95%; inhibition [8]: Dose-dependent effect; Activity (A549 [10]): 6.3%; inhibition (A549 [11]): Active; Activity (A549 [12]): 0%; Activity (A549 [13]): 13.86%; IC50 [16]: 3.11 µM; Activity (A549 [17]): 3.7%; Activity (A549 [18]): 35.19%; Activity (A549 [19]): 89.9%; inhibition (A549 [20]): Active; IC50 [21]: 0.062 µM
c1cncc(CN2CCC(c3cnc4c(N5CCOCC5)cc(-c5ccc6[nH]ccc6c5)nn34)CC2)c1 | 8 µM | 7.1 µM | 13.5 µM | – | – | – | – | – | – | – | 5.1 µM | inhibition of growth at 20 µM (A-375 [22]): 95.8%; inhibition of growth at 20 µM [23]: 84.2%; inhibition of growth at 20 µM (MCF7 [24]): 94.6%; inhibition of growth at 20 µM (A549 [25]): 96.5%; inhibition of growth at 20 µM (HeLa): 68.6%
C[C@H]1COCCN1c1cc(-c2ccc(NC(=O)Nc3cccnc3)cc2)nn2ccnc12 | 11.3 µM | 0.05 µM | 40 µM | – | 0.47 µM | 19% | 59% | 40% | 24% | 9 µM | 13.5 µM | Activity (Mus musculus [26]): Non-Toxic; Activity (A549 [6]): 55.32%; inhibition [8]: Dose-dependent effect; Activity (A549 [10]): 8.8%; Activity (Mus musculus [27]): Non-Toxic; inhibition (A549 [11]): Active; Activity (A549 [12]): 0%; Activity (A549 [13]): 7.61%; IC50 [16]: 4.42 µM; Activity (A549 [17]): 3.5%; inhibition in vivo at 30 mg/kg (A549 [28]): 37.8%; Activity (A549 [18]): 33.07%; Activity (A549 [19]): 87.8%; inhibition (A549 [20]): Active; IC50 [21]: 0.067 µM
Cc1cnc2c(N3CCOCC3)cc(-c3ccc(NC(=O)Nc4cccnc4)cc3)nn12 | 6.4 µM | 5 µM | 16.3 µM | Insoluble | 6.8 µM | – | – | – | – | 11.5 µM | 12.9 µM | –

Continued, in another order:

IC50 (A-375 [1]) | IC50 (A549 [2]) | IC50 (MCF7 [3]) | solubility [4] | IC50 (NCI-H460) | inhibition [7] | inhibition [9] | inhibition [14] | inhibition [15] | SMILES | IC50 (HEK293) | IC50 [5] | also measured
0.12 µM | 0.05 µM | 0.14 µM | – | 0.01 µM | 59% | 70% | 29% | 12% | COc1ccc(-c2ccc3c(N4CCOC[C@@H]4C)nc(N4CCOC[C@@H]4C)nc3n2)cc1CO [AZD-8055] | 1.4 µM | 0.19 µM | IC50 [16]: 5.58 µM
– | – | – | – | – | 96% | 101% | 98% | 99% | Oc1cccc(-c2nc(N3CCOCC3)c3oc4ncccc4c3n2)c1 | – | – | –
4.2 µM | 5.3 µM | 6.6 µM | Insoluble | 3.7 µM | – | – | – | – | CCc1cnc2c(N3CCOC[C@@H]3C)cc(-c3ccc(NC(=O)Nc4cccnc4)cc3)nn12 | 7.3 µM | 8.4 µM | –
3.3 µM | 1.2 µM | 7.8 µM | Insoluble | 7.3 µM | – | – | – | – | Cc1cnc2c(N3CCOC[C@@H]3C)cc(-c3ccc(NC(=O)Nc4cccnc4)cc3)nn12 | 8.2 µM | 10.8 µM | –
4.1 µM | 5.9 µM | 4.7 µM | Insoluble | 2.8 µM | – | – | – | – | CCc1cnc2c(N3CCOC[C@@H]3C)cc(-c3ccc(NC(=O)Nc4ccncc4)cc3)nn12 | 7.5 µM | 5.1 µM | –
2.3 µM | 2.1 µM | > 40 µM | Insoluble | > 40 µM | – | – | – | – | Cc1cnc2c(N3CCOC[C@@H]3C)cc(-c3ccc(NC(=O)Nc4ccncc4)cc3)nn12 | > 40 µM | > 40 µM | –
